Data from patent publication US20230193262A1, “Nucleic acid molecules capable of modulating target gene expression and uses thereof” (KOREA ADVANCED INSTITUTE OF SCIENCE AND TECHNOLOGY, priority 2021, published 2023).
{Cy5.5} = Cy5.5 fluorophore label

Key:
Assay type in all cases: cell-based
Hela-141 cells = assay: Cell viability / apoptosis (CCK-8) in Hela-141 cells; details: Hela-141 cells (express miR-141)
Experimental: (§1) The miRNA triggers were assayed for cytotoxicity and apoptosis induction, using the CCK-8 (Cell Counting Kit-8) (Dojindo, Kumamoto, Japan) according to the manufacturer's instruction. Cells were incubated in 96-well plates (5×10^3 cells/well) at 37° C. for 24 hours under a 5% CO2 atmosphere, followed by transfection. Three days after transfection, the medium was removed. A 10-fold dilution of CCK-8 solution in DMEM was added to the cells which were then incubated at 37° C. for 2 hours. After incubation, absorbance was read at 450 nm on Tecan Infinite M200 pro microplate reader (Mnnedorf, Switzerland).
(§2) The linear miRNA triggers or siRNAs (siLuc and siMcl-1) prepared above were transfected into Hela, Hela-141, and Hela-200c cells which were then measured for cell viability. The results are depicted in FIG. 15.
The hairpin miRNA triggers prepared above were transfected into Hela and Hela-141 cells which were then assayed for apoptosis. As a control, the siRNA (siMcl-1; Table 14) which can repress the expression of mcl-1 was transfected to Hela and Hela-141 cells and measured for apoptotic activity.

Hela-200c cells = assay: Cell viability / apoptosis (CCK-8) in Hela-200c cells
Experimental: as §1, §2

Mcl-1 = assay: Western blot of Mcl-1 protein in Hela-141 cells; details: 5 to 120 nM, compared to the control Luc-141-141
Experimental: (§3) miRNA triggers were transfected into cells in the same manner as in Reference Example 4. After 72 hours, the cells were collected using a cell scraper and lysed with a RIPA buffer (NaCl 150 mM, EDTA 5 mM, Tris 50 mM, NP-40 1.0%, sodium deoxycholate 0.5%, SDS 0.1%). The cell lysate was sonicated 15 times, each for 20 sec, with a halt for 30 sec every sonication. Following centrifugation at 5,000 g for 5 min, the supernatant was taken and used to extract proteins therefrom. A total of 30-40 μg of protein sample was separated in 10-15% SDS-PAGE gel and transferred onto a PVDF membrane through a semi-dry blotting system. The membrane was blocked for 1 hour in 5% skimmed milk and incubated for 2 hours with a 1,000-fold dilution of a primary antibody in, 1% skimmed milk. […] The membrane incubated with the secondary antibody was washed three times with 1×PBST for 10 min each wash, and then reacted with Clarity Western ECL Substrate (#1705061, Bio-Rad), after which images were obtained and analyzed using ChemiDoc (Bio-rad, Hercules, USA).
A linear miRNA trigger (Mcl-1-141-141; Table 15) that could bind to miR-141 and target mcl-1 was prepared while a linear miRNA trigger (Luc-141-141; Table 9) that could bind to miR-141 and target Luc (luciferase) was used as a control. […] Then, proteins were extracted from the Hela-141 cells and quantitatively analyzed for Mcl-1 protein level by western blotting. […]

[1] = test system: breast cancer cell line MDA-MB-231; assay: Cell viability / apoptosis in MDA-MB-231
Experimental: as §1
The seven linear miRNA triggers prepared above and the positive control siRNA(siBcl-xL) capable of binding to bcL-xL were transfected into the breast cancer cell line MDA-MB-231 in which miR-222 is overexpressed. Cell viability was measured and is depicted in FIG. 32a.
Linear miRNA triggers that could bind to miR-222 and target bcl-xL and mcl-1, respectively, were prepared and transfected alone or in combination into the breast cancer cell line MDA-MB-231. Cell viability was measured and the measurements are depicted in FIG. 34. siRNAs against Mcl-1 and Bcl-xL were used as controls. […]
The hairpin miRNA triggers prepared above were transfected into MDA-MB-231 and MDA-MB-453 cells which were then measured for cell viability. […]

[2] = test system: breast cancer cell line MDA-MB-453; assay: Cell viability / apoptosis in MDA-MB-453; details: for apoptosis: MDA-MB-453
Experimental: as §1
(§4) The selected linear miRNA triggers (bcl-xL(1)_22_2222 and bcl-xL(2)_222_222) were transfected into the breast cancer cell line MDA-MB-453 to which miR-222 is not endogenous. Cell viability, and the mRNA and protein expression levels of the target gene (bcl-xL) were measured and the results are depicted in FIGS. 33a to 33c.
The hairpin miRNA triggers prepared above were transfected into MDA-MB-231 and MDA-MB-453 cells which were then measured for cell viability. The results are depicted in FIG. 37.
The MCL-1-222-222 miRNA trigger, which utilizes miR-222 to regulate MCL-1 gene, and the BCL-xL-let7f-let7f miRNA trigger, which utilizes miR-let7f to regulate BCL-xL gene, were administered to MDA-MB-231 and MDA-MB-453.
Next, apoptosis was examined when the two types of miRNA triggers were co-administered to cells. The total concentration of the two triggers was 120 nM, which was the same as for individual miRNAs. The results are depicted in FIG. 47.

cleaved PARP = assay: Western blot of apoptotic marker cleaved PARP; details: blood cancer cell line HL-60
Experimental: as §3, with “USA). […]” for “USA).”
The cells transfected with the selected miRNA triggers were measured for protein expression levels of the target Bcl-xL and the apoptotic marker cleaved PARP through western blotting, and the results are depicted in FIG. 32b.

[3] = test system: MCF-7 breast cancer cells; assay: Cell viability / apoptosis in MCF-7; details: single siRNA, final concentration 60 nM
Experimental: as §1
An siRNA targeting bcl-2, bcl-xL, or mcl-1 was transfected into MCF-7 breast cancer cells and PANC-1 pancreatic cancer cells. By using qRT-PCR, establishment was made of a condition under which the expression of each target gene is decreased by 80% or more (transfection was performed at a concentration of 60 nM with the aid of Lipofectamine). As a negative control, a Luc (Luciferase)-targeting siRNA (siLuc) was used. Under the same condition of decreasing the expression of each target gene by 80% or more, the cells transfected with the siRNAs were measured for apoptosis, and the results are depicted in FIGS. 14a and 14b.
Linear miRNA triggers that could bind to miR-141 or let7f and target bcl-xL or mcl-1 were prepared and transfected alone or in combination into the breast cancer cell line MCF-7 which was then measured for cell viability. Every nucleotide of the triggers and controls was chemically modified with 2′-OMe.
First, MCF-7 was measured for cell viability after treatment with siMCL-1, siBCL-xL, and siBCL-2 (FIG. 48). […] The final concentration of the siRNAs was 60 nM.
Next, examination was made of the apoptosis when two or more genes were regulated together. MCF-7 was measured for cell viability after treatment with siMCL-1+siBCL-xL, siMCL-1+siBCL-2, siBCL-xL+siBCL-2, and siMCL-1+siBCL-xL+siBCL-2 (FIG. 49).
Finally, experiments under all the conditions (individual and simultaneous regulation) were conducted simultaneously so as to compare effects thereof. […]

[4] = test system: MOLM-14, MV4-11 and Hela cells; assay: Fluorescence (IVIS 100) of cells transfected with Cy5.5-labeled trigger; details: Lipofectamine
Experimental: With the aid of Lipofectamine, the linear miRNA trigger (5′-Cy5.5-miR-155-miR-155-PKR-3′) was transfected into the FLT3-ITD mutant AML cell lines MOLM-14 and MV4-11 and the solid cancer cell line Hela. […] Subsequent animal tests were performed with the trigger.

BCL-xL mRNA = assay: bcl-xL mRNA expression / gene regulation efficiency; details: MDA-MB-453
Experimental: In the same manner as in Reference Example 4, miRNA triggers were transfected into cells. After 48 hours, total RNA was extracted using TRIzol (Thermo Fisher Scientific) according to the manufacturer's instruction. The purified RNA was treated with DNase I and then reverse transcribed in the presence of RevertAid reverse transcriptase (Thermo Fisher Scientific), with random hexamers (Thermo Fisher Scientific) serving as primers. For use in amplification of target genes, primers for target genes were added, together with the cDNA, to the SYBR Green PCR master mix (Thermo Fisher Scientific). RT-qPCR was conducted on a StepOnePlus real-time PCR system. Cq values obtained from this analysis was quantitatively analyzed based on the 2^−ΔΔC(t) method.
as §4
After treatment with miRNA triggers, mRNA expression levels of the target gene BCL-xL were measured. […]

Bcl-xL = assay: Western blot of Bcl-xL protein; details: MDA-MB-453
Experimental: as §3
The cells transfected with the selected miRNA triggers were measured for protein expression levels of the target Bcl-xL and the apoptotic marker cleaved PARP through western blotting, and the results are depicted in FIG. 32b. […]

Mcl-1-141-141: linear miRNA trigger binding miR-141 and targeting mcl-1; SEQ ID NO 65 (Table 25: 110) (CCAUCUUUACCUCACAGUGUUACCAUCUUUACCUCACAGUGUUACCGAACUACGUAGC; all 2'-O-methyl, backbone not given here)
apoptosis induced (Hela-141 cells): up to 40%
apoptosis / cell viability (Hela-200c cells): no significant influence on cell viability
Mcl-1 protein level (Mcl-1): significantly decreased in Mcl-1 protein level

MCL-1-222-222: linear miRNA trigger which utilizes miR-222 to regulate MCL-1 gene; SEQ ID NO 109 (ACCCAGUAGCCAGAUGUAGCUACCCAGUAGCCAGAUGUAGCUCCGAACUACGUAGC; all 2'-O-methyl, backbone not given here)
apoptosis ([1]; 120 nM (total)): no apoptosis was observed
apoptosis ([2]; 120 nM (total)): did not induce apoptosis

siBcl-2: siRNA targeting bcl-2; SEQ ID NO 62 (AUCAAUCUUCAGCACUCUC; listed as RNA, chemistry not given here)
expression of the apoptotic marker cleaved PARP (cleaved PARP): upregulated
apoptosis (cell viability) [3]: apoptosis was detected

MCL-1-let7f-let7f: linear miRNA trigger designed to knock down MCL-1 by using miR-let7f; SEQ ID NO 113 (AACUAUACAAUGAACUACCUCAAACUAUACAAUGAACUACCUCACCGAACUACGUAGC; all 2'-O-methyl, backbone not given here)
apoptosis ([1]; Examples 12-13): none of the two cell lines were induced to undergo apoptosis
apoptosis ([2]; Example 13): none of the two cell lines were induced to undergo apoptosis

B1: 5′-Cy5.5-miR-155-miR-155-PKR-3′: linear miRNA trigger binding miR-155, targeting PKR, labeled with Cy5.5 fluorophore; SEQ ID NO 69 (conjugate)
chain: UUAUGUUUCAGGUUCAGGGGGAUUAUGUUUCCAGGUUCAGGGGGAUAUGUGAGGCAGAGAACGA
modifications: all 2'-O-methyl, 5' {Cy5.5}, backbone not given here
Cy5.5 fluorescence of transfected cells [4]: Fluorescence was detected

B2: bcl-xL(1)_222_222: linear miRNA trigger binding miR-222 and knocking down bcl-xL; SEQ ID NO 106 (nucleic acid)
chain: ACCCAGUAGCCAGAUGUAGCUACCCAGUAGCCAGAUGUAGCUUCUCCUUCCUGCCCUUCCU
modifications: all 2'-O-methyl, backbone not given here
mRNA expression level of target bcl-xL (BCL-xL mRNA): did not significantly change
cell viability ([2]; MDA-MB-453 (does not express miR-222)): did not significantly change
protein expression level of target bcl-xL (Bcl-xL): did not significantly change
